{
  "source": "paper PMC3404106",
  "about": "“Pharmacology of DB844, an Orally Active aza Analogue of Pafuramidine, in a Monkey Model of Second Stage Human African Trypanosomiasis” (PLoS Neglected Tropical Diseases, 2012)",
  "key": {"[1]": {"experiment": "Pharmacokinetics (plasma and CSF) in infected monkeys after last DB844 dose"}, "[2]": {"experiment": "Metabolism of DB844 in vervet monkey liver microsomes", "type": "in vitro ADME", "conditions": "10 µM DB844, 0.2 mg/ml male vervet monkey liver microsomes", "method": "The metabolism of DB844 was investigated using liver microsomes, prepared from a male vervet monkey by XenoTech, LLC (Lenexa, KS), in the presence of NADPH as described previously with modifications. Briefly, incubation mixtures (1 ml at pH7.4, in triplicate) contained 10 µM DB844 and 0.2 mg/ml monkey liver microsomes. After a 5-min equilibration period at 37°C, reactions were initiated with the addition of NADPH. Aliquots (50 µl) of the reaction mixtures were removed at 0, 5, 10, 15, 30, 60, 90, and 120 min and mixed with 25 µl of ice-cold acetonitrile. The mixtures were centrifuged (10,000×g for 5 min at 4°C) and the supernatants were analyzed by HPLC/UV using the same method as previously described for DB289 [22]. […] DB844 and metabolites were quantified using a single-concentration calibration curve generated using synthetic standards."}, "[3]": {"system": "1st stage experimental murine HAT infections", "design": "method as in PMID 19620327", "conditions": "DB844 at 25 mg/kg; cited from earlier work"}, "GVR35 CNS model of HAT": {"system": "GVR35 CNS model of HAT", "design": "method as in PMID 19620327", "conditions": "cited from earlier work"}, "[4]": {"system": "Trypanosoma brucei rhodesiense KETRI 2537", "experiment": "Efficacy in vervet monkey model of second stage HAT", "type": "in vivo", "conditions": "for TOC test at 300 days post last dose / EoT test at 1 day post last dose (trypanosomes in blood/CSF) / EoT test at 4 days post last dose (trypanosomes in blood/CSF): individual monkeys; for EoT test at 1 day post last dose (trypanosomes in blood/CSF) / EoT test at 4 days post last dose (trypanosomes in blood/CSF): Neg/Pos", "description": "A pleomorphic isolate, T.b rhodesiense KETRI 2537, a derivative of EATRO 1989 that was isolated from a patient in Uganda by direct inoculation of blood and lymph node aspirate into a monkey and later cryopreserved at KARI- TRC [18], was used. This isolate is the basis of the KETRI vervet monkey and mouse models and has been widely used for drug efficacy trials, [20].\nSixteen vervet monkeys in two groups of eight monkeys each (four males and four females) were used. After a 14-day baseline weight, clinical and haematology data collection period, the sixteen monkeys were infected by intravenous injection of approximately 10^4 trypanosomes diluted from infected blood of immuno-suppressed donor Swiss white mice. Parasitaemia post infection was determined by examination of wet film of ear prick blood and/or examination of buffy coat after centrifugation of blood collected in a heparinised capillary tube as described previously. Parasitaemia in wet film was estimated using the rapid matching method of Herbert and Lumsden. In addition, monkeys were confirmed to be in second stage disease by detection of trypanosomes in the CSF with or without elevated white cell counts above 5 cells/µl, [20], [21], [23]. At 28 days post infection (DPI), the animals were treated with DB844 via oral gavage at 5 mg/kg qd×10 days (group I, n = 8) or 6 mg/kg qd×14 days (group II, n = 8), utilising a dose volume of 1 ml/kg. The monkeys were examined for parasitaemia every day during drug treatment and then twice weekly until ≥300 days post dosing, at which point monkeys were considered cured if they remained clinically normal and parasite-free as determined below."}, "[5]": {"experiment": "Toxicity study of 10-day oral DB844 regimens in uninfected monkeys"}, "[6]": {"conditions": "plasma, after the 14th oral dose of DB844 at 6 mg/kg, n = 7, geometric mean, analyte = label"}, "[7]": {"conditions": "group I: DB844 5 mg/kg×10 days per os, 28–37 DPI, 5 mg/kg"}, "[8]": {"conditions": "group II: DB844 6 mg/kg×14 days per os, 28–41 DPI, 6 mg/kg"}, "[9]": {"conditions": "relapsed monkeys of both groups"}, "[10]": {"conditions": "uninfected monkeys, DB844 5 mg/kg×10 days orally, monkeys 572F, 582M"}, "[11]": {"conditions": "uninfected monkeys, DB844 10 mg/kg×10 days orally, monkeys 541F, 578M, 10 mg/kg"}, "[12]": {"conditions": "uninfected monkeys, DB844 10 mg/kg×10 days orally, monkeys 541F, 578M, parenthesis = days post first dose when observed, 10 mg/kg"}, "[13]": {"conditions": "vervet 578, 10 mg/kg×10 days orally, uninfected"}},
  "note": "Several values for one entry are separate records, joined by “and”; a condition that tells them apart may be missing. Equal values may be shown once. Entries after “also recorded” stand apart in the source; their conditions may differ.",
  "data": [
    {"smiles": "CONC(=N)c1ccc(-c2ccc(-c3ccc(C(=N)NOC)cn3)o2)cc1", "note": "[DB844, N-methoxy-6-{5-[4-(N-methoxyamidino)phenyl]-furan-2-yl}-nicotinamidine]", "values": [
      {"measurement": "detection in CSF after the 1 h post dose sample", "setting": "[1]; after last dose of DB844 6 mg/kg×14 days", "result": "not detected thereafter"},
      {"measurement": "concentration at 1 h", "setting": "[1]; monkey, CSF, oral, 6 mg/kg", "result": 0.017, "unit": "µM"},
      {"measurement": "half-life", "setting": "[1]; monkey, in vivo, po, 6 mg/kg", "result": 5.8, "unit": "h"},
      {"measurement": "CL/F", "setting": "[1]; monkey, plasma, po, 6 mg/kg", "result": 10, "unit": "L/h/kg"},
      {"measurement": "half-life", "setting": "[1]; monkey, plasma, po, 6 mg/kg", "result": 5.76, "unit": "h"},
      {"measurement": "Tmax", "setting": "[1]; monkey, plasma, po, 6 mg/kg, Tmax, plasma, after the 14th oral dose of DB844 at 6 mg/kg, n = 7, median, analyte = label", "result": 0.96, "unit": "h"},
      {"measurement": "Tmax", "setting": "[1]; monkey, plasma, po, 6 mg/kg, time of peak plasma concentration, after the last (14th) dose of DB844 at 6 mg/kg, analyte = label", "result": 1, "unit": "h"},
      {"measurement": "AUC(0-∞)", "setting": "[1]; [6]", "result": 70, "unit": "nmol·days/L"},
      {"measurement": "AUClast", "setting": "[1]; [6]", "result": 68, "unit": "nmol·days/L"},
      {"measurement": "metabolites formed over a 120 min incubation period", "setting": "[2]", "result": "at least seven"},
      {"measurement": "half-life at 10 µM", "setting": "[2]; pH 7.4, NADPH, 37°C, pH7.4, read-out: microsomal half-life", "result": "~0.233", "unit": "h"},
      {"measurement": "cure of 1st stage experimental murine HAT infection", "setting": "[3]", "result": "curative"},
      {"measurement": "cure of 2nd stage experimental murine HAT infection", "setting": "GVR35 CNS model of HAT; DB844 at 100 mg/kg", "result": "curative"},
      {"measurement": "animals cured", "setting": "GVR35 CNS model of HAT; mice, oral DB844 (100 mg/kg×5 days)", "result": "5/5"},
      {"measurement": "EoT provisional cure rate at 4 days post dosing", "setting": "[4]; both groups (5 mg/kg×10 days and 6 mg/kg×14 days)", "result": 100, "unit": "%"},
      {"measurement": "overall cure rate", "setting": "[4]; both study groups", "result": "approximately 40%"},
      {"measurement": "trypanosomes in the blood or cerebrospinal fluid at end of treatment evaluation", "setting": "[4]; four days post the last drug dose, any monkey", "result": "not detected"},
      {"measurement": "TOC test at 300 days post last dose", "setting": "[4]; [7]", "result": "Cured; also recorded: Relapsed"},
      {"measurement": "EoT test at 1 day post last dose (trypanosomes in blood/CSF)", "setting": "[4]; [7]", "result": "Neg and Pos"},
      {"measurement": "EoT test at 4 days post last dose (trypanosomes in blood/CSF)", "setting": "[4]; [7]", "result": "neg and Neg"},
      {"measurement": "TOC test at 300 days post last dose", "setting": "[4]; [8]", "result": "Cured; also recorded: Relapsed"},
      {"measurement": "EoT test at 4 days post last dose (trypanosomes in blood/CSF)", "setting": "[4]; group II: DB844 6 mg/kg×14 days per os, 28–41 DPI", "result": "Neg"},
      {"measurement": "EoT test at 1 day post last dose (trypanosomes in blood/CSF)", "setting": "[4]; [8]", "result": "Neg and Pos"},
      {"measurement": "cure rate in the vervet monkey model of 2nd stage HAT", "setting": "[4]; oral DB844, best of the two regimens", "result": "up to 43%"},
      {"measurement": "median (range) time to trypanosome recrudescence in CSF", "setting": "[4]; [9]", "result": "133 (35–322, n = 9) days and 133 days"},
      {"measurement": "median (range) time to trypanosome recrudescence in blood", "setting": "[4]; [9]", "result": "261 (239–322, n = 3) days and 261 days"},
      {"measurement": "monkeys in which no adverse clinical signs of toxicity were elicited", "setting": "[5]; uninfected monkeys, 5 mg/kg/day orally for 10 days", "result": "2/2"},
      {"measurement": "monkeys with overt toxicity", "setting": "[5]; uninfected monkeys, 10 mg/kg/day orally for 10 days", "result": "1/2"},
      {"measurement": "monkeys with overt toxicity", "setting": "[5]; uninfected monkeys, 20 mg/kg/day orally (8 doses given)", "result": "2/2"},
      {"measurement": "weight loss (maximum among adverse clinical events)", "setting": "[5]; uninfected monkeys, 5, 10 or 20 mg/kg/day orally", "result": "up to 10.5%"},
      {"measurement": "Adverse clinical events: GIT changes", "setting": "[5]; [10]", "result": "None"},
      {"measurement": "Adverse clinical events: Jaundice", "setting": "[5]; [10]", "result": "None"},
      {"measurement": "Adverse clinical events: Reduced feed intake", "setting": "[5]; [10]", "result": "None"},
      {"measurement": "Daily doses completed", "setting": "[5]; [10]", "result": "10/10"},
      {"measurement": "Euthanised due to toxicity", "setting": "[5]; [10]", "result": "No"},
      {"measurement": "% weight loss", "setting": "[5]; uninfected monkeys, DB844 5 mg/kg×10 days orally, monkeys 572F, 582M, 5 mg/kg", "result": "1.8% and 4.9%"},
      {"measurement": "Daily doses completed", "setting": "[5]; uninfected monkeys, DB844 10 mg/kg×10 days orally, monkeys 541F, 578M", "result": "10/10"},
      {"measurement": "% weight loss", "setting": "[5]; [11]", "result": "4.6% and 10.5%"},
      {"measurement": "Adverse clinical events: Jaundice", "setting": "[5]; [11]", "result": "None and yes"},
      {"measurement": "Adverse clinical events: GIT changes", "setting": "[5]; [12]", "result": "None and Yes (16)"},
      {"measurement": "Adverse clinical events: Reduced feed intake", "setting": "[5]; [12]", "result": "Yes (11); also recorded: Yes (14)"},
      {"measurement": "Euthanised due to toxicity", "setting": "[5]; uninfected monkeys, DB844 10 mg/kg×10 days orally, monkeys 541F, 578M, parenthesis = days post first dose, 10 mg/kg", "result": "No and Yes (16)"},
      {"measurement": "Adverse clinical events: Jaundice", "setting": "[5]; uninfected monkeys, DB844 20 mg/kg×10 days orally, monkeys 543F, 606M", "result": "yes"},
      {"measurement": "% weight loss", "setting": "[5]; uninfected monkeys, DB844 20 mg/kg×10 days orally, monkeys 543F, 606M, 20 mg/kg", "result": "9.1% and 6.5%"},
      {"measurement": "Daily doses completed", "setting": "[5]; uninfected monkeys, DB844 20 mg/kg×10 days orally, monkeys 543F, 606M, dosing withdrawn on overt toxicity", "result": "8/10"},
      {"measurement": "Adverse clinical events: GIT changes", "setting": "[5]; uninfected monkeys, DB844 20 mg/kg×10 days orally, monkeys 543F, 606M, parenthesis = days post first dose when observed", "result": "Yes (8)"},
      {"measurement": "Adverse clinical events: Reduced feed intake", "setting": "[5]; uninfected monkeys, DB844 20 mg/kg×10 days orally, monkeys 543F, 606M, parenthesis = days post first dose when observed, 20 mg/kg", "result": "Yes (8); also recorded: Yes (9)"},
      {"measurement": "Euthanised due to toxicity", "setting": "[5]; uninfected monkeys, DB844 20 mg/kg×10 days orally, monkeys 543F, 606M, parenthesis = days post first dose, 20 mg/kg", "result": "Yes (9); also recorded: Yes (10)"},
      {"measurement": "monkeys in which the dose was well tolerated", "setting": "[5]; uninfected monkeys, middle dose 10 mg/kg×10 days", "result": "1/2"},
      {"measurement": "mean corpuscular volume (MCV) after rise from 76.6", "setting": "[5]; [13]", "result": 86.9, "unit": "fL"},
      {"measurement": "red cell distribution width (RDW) after rise from 15", "setting": "[5]; [13]", "result": 18.4},
      {"measurement": "rise in mean corpuscular volume (MCV)", "setting": "[5]; [13]", "result": 13, "unit": "%"},
      {"measurement": "rise in red cell distribution width (RDW)", "setting": "[5]; [13]", "result": 23, "unit": "%"}
    ]}
  ]
}
